Active and inactive are the calls of the source. The calls are words filed in the database; no cut-off is given here.
Key:
[1] = Binding affinity to complementary DNA
[2] = Binding affinity to complementary RNA

Row | Activity [1] | Activity [2] | Compound
1 | inactive | inactive | Cc1cn([C@H]2C[C@H](OP(=O)(O)OC[C@H]3O[C@@H](n4ccc(N)nc4=O)[C@H](O)[C@@H]3OP(=O)(O)OC[C@H]3O[C@@H](n4cnc5c(=O)[nH]c(N)nc54)[C@H](O)[C@@H]3OP(=O)(O)OC[C@H]3O[C@@H](n4cnc5c(N)ncnc54)[C@H](O)[C@@H]3OP(=O)(O)OC[C@H]3O[C@@H](n4cnc5c(=O)[nH]c(N)nc54)[C@H](O)[C@@H]3OP(=O)(O)OC[C@H]3O[C@@H](n4ccc(N)nc4=O)[C@H](O)[C@@H]3OP(=O)(O)OC[C@H]3O[C@@H](n4cnc5c(=O)[nH]c(N)nc54)[C@H](O)[C@@H]3OP(=O)(O)OC[C@H]3O[C@@H](n4cc(C)c(=O)[nH]c4=O)C[C@@H]3OP(=O)(O)OC[C@H]3O[C@@H](n4cc(C)c(=O)[nH]c4=O)C[C@@H]3OP(=O)(O)OC[C@H]3O[C@@H](n4ccc(N)nc4=O)[C@H](O)[C@@H]3OP(=O)(O)OC[C@H]3O[C@@H](n4cc(C)c(=O)[nH]c4=O)C[C@@H]3OP(=O)(O)OC[C@H]3O[C@@H](n4ccc(N)nc4=O)[C@H](O)[C@@H]3OCCCS/C=C\SCCCOP(OC[C@H]3O[C@@H](n4cnc5c(N)ncnc54)[C@H](O)[C@@H]3OP(=O)(O)OC[C@H]3O[C@@H](n4ccc(N)nc4=O)[C@H](O)[C@@H]3OP(=O)(O)OC[C@H]3O[C@@H](n4cnc5c(=O)[nH]c(N)nc54)[C@H](O)[C@@H]3OP(=O)(O)OC[C@H]3O[C@@H](n4ccc(N)nc4=O)[C@H](O)[C@@H]3OP(=O)(O)OC[C@H]3O[C@@H](n4cc(C)c(=O)[nH]c4=O)C[C@@H]3OP(=O)(O)OC[C@H]3O[C@@H](n4ccc(N)nc4=O)[C@H](O)[C@@H]3OP(=O)(O)OC[C@H]3O[C@@H](n4cnc5c(=O)[nH]c(N)nc54)[C@H](O)[C@@H]3OP(=O)(O)OC[C@H]3O[C@@H](n4cnc5c(N)ncnc54)[C@H](O)[C@@H]3O)N(C(C)C)C(C)C)[C@@H](CO)O2)c(=O)[nH]c1=O (stereo partly specified)
2 | Active | Active | Cc1cn([C@H]2C[C@H](OP(=O)(O)OC[C@H]3O[C@@H](n4ccc(N)nc4=O)[C@H](O)[C@@H]3OP(=O)(O)OC[C@H]3O[C@@H](n4cnc5c(=O)[nH]c(N)nc54)[C@H](O)[C@@H]3OP(=O)(O)OC[C@H]3O[C@@H](n4cnc5c(N)ncnc54)[C@H](O)[C@@H]3O)[C@@H](COP(=O)(O)O[C@H]3[C@@H](O)[C@H](n4ccc(N)nc4=O)O[C@@H]3COP(=O)(O)O[C@H]3[C@@H](O)[C@H](n4cnc5c(=O)[nH]c(N)nc54)O[C@@H]3COP(=O)(O)O[C@H]3[C@@H](O)[C@H](n4ccc(N)nc4=O)O[C@@H]3COP(=O)(O)O[C@H]3[C@@H](O)[C@H](n4cnc5c(N)ncnc54)O[C@@H]3CO)O2)c(=O)[nH]c1=O
3 | Active | Active | Cc1cn([C@H]2C[C@H](OP(=O)(O)OC[C@H]3O[C@@H](n4ccc(N)nc4=O)[C@H](O)[C@@H]3OP(=O)(O)OC[C@H]3O[C@@H](n4cnc5c(=O)[nH]c(N)nc54)[C@H](O)[C@@H]3OP(=O)(O)OC[C@H]3O[C@@H](n4cnc5c(N)ncnc54)[C@H](O)[C@@H]3OP(=O)(O)OC[C@H]3O[C@@H](n4cnc5c(=O)[nH]c(N)nc54)[C@H](O)[C@@H]3OP(=O)(O)OC[C@H]3O[C@@H](n4ccc(N)nc4=O)[C@H](O)[C@@H]3OP(=O)(O)OC[C@H]3O[C@@H](n4cnc5c(=O)[nH]c(N)nc54)[C@H](O)[C@@H]3OP(=O)(O)OC[C@H]3O[C@@H](n4cc(C)c(=O)[nH]c4=O)C[C@@H]3OP(=O)(O)OC[C@H]3O[C@@H](n4cc(C)c(=O)[nH]c4=O)C[C@@H]3OP(=O)(O)OC[C@H]3O[C@@H](n4ccc(N)nc4=O)[C@H](O)[C@@H]3OP(=O)(O)OC[C@H]3O[C@@H](n4cc(C)c(=O)[nH]c4=O)C[C@@H]3OP(=O)(O)OC[C@H]3O[C@@H](n4ccc(N)nc4=O)[C@H](O)[C@@H]3O)[C@@H](CO)O2)c(=O)[nH]c1=O
